Assay results: patent US10899785B2, “Aminoglycoside derivatives and uses thereof in treating genetic disorders” (Eloxx Pharmaceuticals Ltd., priority 2015, dated 2021)
Entries after “also recorded” stand apart in the source; their conditions may differ. Read-outs that look alike come from different tables or passages of the source.

Tests used:
[1] = test system: Rett syndrome R168X, R270X and R294X nonsense mutations; experiment: Cell-free nonsense mutation suppression assay, firefly/renilla; type: biochemical, rabbit; settings: 5 μM, FIGS. 8A-C
Method: (§1) The plasmids were transcribed in vitro and translated using rabbit reticulocytes (TNT mix) and then tested for the expression levels of the firefly and renilla luciferases.
(§2) WT plasmids expressed both firefly and renilla luciferases while mutant plasmids expressed only the renilla luciferase due to the stop codon found in the inserted sequence. The readthrough assays were conducted for the tested compounds and the controls by adding the compounds to the in vitro transcription/translation reaction mixture. In case the compounds exerted suppression of the premature nonsense/stop codon mutation, the firefly luciferase was expressed and a fold-change in its expression was observed.
FIGS. 8A-C present the results of Rett syndrome R168X (FIG. 8A), R270X (FIG. 8B) and R294X (FIG. 8C) nonsense mutations suppression cell-free assays conducted for six exemplary compounds according to embodiments of the present invention, NB144, NB145, NB146, NB150, NB151 and NB152, at a concentration of 5 μM. As shown therein, when compared with the control (non-treated cell extracts), the wild type cell extracts are unaffected (approx. 100%); however, in all three Rett syndrome mutation models there is a significant impact of the different treatments on the readthrough activity (>>>100%).

[2] = test system: cystic fibrosis G542X nonsense mutation; experiment: Cell-free nonsense mutation suppression dose-response assay, firefly/renilla; type: biochemical, rabbit; settings: 0-50 μM, FIGS. 4-7
Method: as §1, §2
Readthrough activity of Cystic Fibrosis (CF) mutation G542X was tested using the compounds presented in Table 1, and the mutation suppression was calculated based on firefly/renilla expression ratio values, and normalized with respect to the expression level of the WT and the control sample (no tested compound).

B. subtilis ATCC-6633 = experiment: Antibacterial activity, MIC by double-microdilution; type: cell-based; settings: Bacillus subtilis
Method: (§3) Comparative antibacterial activities were determined in two representative strains of Gram-negative (E. coli R477-100) and Gram-positive (B. subtilis ATCC-6633) bacteria, by measuring the MIC values using the double-microdilution method according to the National Committee for Clinical Laboratory Standards (NCCLS) (NCCLS. National Committee for Clinical Laboratory Standards, Performance standards for antimicrobial susceptibility testing. Fifth information supplement: Approved Standard M100-S5; Villanova, Pa.: NCCLS, 1994.).
(§4) In all biological tests, all AGs were in their sulfate salt forms, and the concentrations refer to the free amine form of each AG. The eukaryotic and prokaryotic half-maximal-inhibition values (IC50^Euk and IC50^Pro) were quantified in coupled transcription/translation assays by using active luciferase detection as previously described. Minimal inhibitory concentration (MIC) values were determined by using the double-microdilution method.

E. coli R477-100 = experiment: as above; type: cell-based; settings: Escherichia coli, R477100, read-out: Antibacterial Activity MIC E. Coli R 477/100
Method: as §3, §4

human fibroblast cells = settings: against human fibroblast cells; cited from earlier work
[3] = test system: premature termination codon (PTC); experiment: Comparative in-vitro PTC suppression activity assays (Example 6); type: biochemical
[4] = test system: prokaryotic ribosome (E. coli S30 extract); experiment: Prokaryotic in vitro translation inhibition, coupled transcription/translation, E. coli S30 extract, pBESTluc; type: biochemical; settings: from IC50^Pro and MIC values of Tables 4 and 6
Method: (§5) Prokaryotic in vitro translation inhibition by the different aminoglycosides was quantified in coupled transcription/translation assays by using E. coli S30 extract for circular DNA with the pBESTluc plasmid (Promega), according to the manufacturer's protocol. Translation reactions (25 μL) that contained variable concentrations of the tested aminoglycoside were incubated at 37° C. for 60 minutes, cooled on ice for 5 minutes, and diluted with a dilution reagent (tris-phosphate buffer (25 mM, pH 7.8), DTT (2 mM), 1,2-diaminocyclohexanetetraacetate (2 mM), glycerol (10%), Triton X-100 (1%) and BSA (1 mg mL-1)) into 96-well plates. Eukaryotic in vitro translation inhibition was quantified by use of TNT® T7 Quick Coupled Transcription/Translation System with a luciferase T7 control DNA plasmid (Promega), according to the manufacturer protocol. Translation reactions (25 μL) containing variable concentrations of the tested aminoglycoside were incubated at 30° C. for 60 minutes, cooled on ice for 5 minutes, diluted with the dilution reagent and transferred into 96-well plates. In both prokaryotic and eukaryotic systems the luminescence was measured immediately after the addition of the Luciferase Assay Reagent (50 μL; Promega), and the light emission was recorded with a FLx800 Fluorescence Microplate Reader (Biotek). The half-maximal inhibition concentration (IC50) values were obtained from fitting concentration-response curves to the data of at least two independent experiments by using Grafit 5 software.
as §4

[5] = test system: eukaryotic cytoplasmic ribosome; experiment: Eukaryotic in vitro translation inhibition, TNT T7 Quick Coupled Transcription/Translation System, luciferase; type: biochemical; settings: NB156 vs NB74, NB157 vs NB124
Method: as §5, with “Translation reactions (25 μL) containing variable concentrations of the tested aminoglycoside were incubated at 30° C. for 60 minutes, cooled on ice for 5 minutes, diluted with the dilution reagent and transferred into 96-well plates.” left out, “The half-maximal inhibition concentration (IC50) values were obtained from fitting concentration-response curves to the data of at least two independent experiments by using Grafit 5 software.” left out
In all biological tests, all AGs were in their sulfate salt forms, and the concentrations refer to the free amine form of each AG. […] Minimal inhibitory concentration (MIC) values were determined by using the double-microdilution method.

[6] = test system: nonsense constructs R3X and R245X (USH1), Q70X (HS), G542X (CF); experiment: Dual luciferase in vitro readthrough assay, p2Luc plasmids, TNT Reticulocyte Lysate; type: biochemical; settings: all mutations tested: R3X, R245X, Q70X, G542X; FIGS. 11A-D
Source text: DNA fragments derived from PCDH15, CFTR, and IDUA cDNAs, including the tested nonsense mutation or the corresponding wild type (wt) codon, and four to six upstream and downstream flanking codons were created by annealing the following pairs of complementary oligonucleotides:
Fragments were inserted in frame into the polylinker of the p2Luc plasmid between either BamHI and SacI (p.R3X and p.R245X) or SalI and SacI (all the rest) restriction sites. For the in vitro readthrough assays, the obtained plasmids, with addition of the tested aminoglycosides were transcribed and translated using the TNT Reticulocyte Lysate Quick Coupled Transcription/Translation System. Luciferase activity was determined after 90 minutes of incubation at 30° C., using the Dual Luciferase Reporter Assay System (Promega™).
Activity was tested using a collection of dual-luciferase reporter plasmids, containing different sequence contests around premature stop codons derived from the PCDH15, CFTR, and IDUA genes that underline USH1, CF, and MPS I-H, respectively. The exemplified nonsense reporters were R3X and R245X for USH1, G542X for CF, and Q70X for MPS I-H.

[7] = test system: stop codon mutations of Table 5; experiment: Dual-luciferase readthrough of a broad arsenal of stop codon mutations; type: biochemical; settings: all tested mutations
Method: In these assays, the readthrough of a broad arsenal of stop codon mutations in the presence of NB156 and NB157 was tested. Briefly, NB156 and NB157 were tested at escalating doses for their read-through properties towards the nonsense mutation using the wild-type (WT) sequence of each specific complementary DNA (cDNA) as a control, and plasmids bearing the stop codon mutations in a dual-luciferase assay. DNA fragments derived from different cDNAs were prepared using either the WT or nonsense mutation, in which the sequences from the mutant or wild-type codon were surrounded by four to six upstream and downstream flanking codons. The cDNA sequence was inserted into the polylinker of the p2luc plasmid for each sequence.

[8] = ATCC6633, Table 6, read-out: Antibacterial activity MIC B. subtilis ATCC6633
[9] = ATCC6633, Table 4, read-out: Antibacterial Activity MIC B. Subtilis ATCC6633

Structure (SMILES): CCCN[C@@H]1CC(N)[C@@H](O[C@H]2OC([C@@H](C)O)[C@@H](O)C(O)C2N)C(O)C1O (stereo in doubt) [NB146]
- readthrough activity compared within the series [1]: better activity compared to NB144 and NB145
- G542X mutation suppression (readthrough) activity, dose-response [2]: clearly dose-dependent for all three compounds, and particularly for NB146; also recorded: notable dose-dependent readthrough activity

Structure (SMILES): C[C@@H](O)C1O[C@H](O[C@@H]2C(N)C[C@@H](NC(=O)C(O)CCN)C(O)C2O[C@@H]2O[C@H](CNC(=N)N)C(O)C2O)C(N)C(O)[C@@H]1O (stereo in doubt) [NB152]
- readthrough activity compared within the series [1]: higher activity compared to NB150 and NB151
- G542X mutation suppression (readthrough) activity, dose-response [2]: notable dose-dependent readthrough activity

Structure (SMILES): CN[C@@H]1[C@@H](O)[C@@H](O[C@@H]2[C@@H](O)[C@H](O[C@H]3O[C@H]([C@@H](C)O)[C@@H](O)[C@H](O)[C@H]3N)[C@@H](N)C[C@H]2N)OC[C@]1(C)O [Compound G418, geneticin, reference compound]
- MIC (B. subtilis ATCC-6633; ATCC6633, read-out: Antibacterial Activity MIC B. Subtilis ATCC6633): < 1.25 µM
- MIC (E. coli R477-100): 9 µM
- LD50 (human fibroblast cells): 0.04 mg/mL

Structure (SMILES): N[C@H]1[C@@H](O[C@H]2[C@H](O)[C@@H](O)[C@H](N)C[C@@H]2N)OC(CO)=C[C@@H]1O [NB154, (1S,2R,3R,4S,6R)-4,6-diamino-3-(((2S,3R,4S)-3-amino-4-hydroxy-6-(hydroxymethyl)-3,4-dihydro-2H-pyran-2-yl)oxy)cyclohexane-1,2-diol]
- MIC (B. subtilis ATCC-6633; [8]): > 384 µg/mL
- MIC (E. coli R477-100): > 384 µg/mL
- in-vitro PTC suppression activity compared with structurally related compound [3]: more or less similar activity as that of NB82
- readthrough activity, fold higher than paromamine ([3]; preliminary comparative in-vitro PTC suppression assays): ~3.5 fold
- prokaryotic ribosome/protein synthesis inhibition and subsequent antibacterial activity compared with structurally related compound [4]: significantly lower than that of the corresponding paromamine, NB30, and NB118

Structure (SMILES): NC[C@H]1O[C@@H](O[C@@H]2[C@@H](O)[C@H](N)C[C@H](N)[C@H]2O[C@H]2O[C@H]([C@H](O)CO)[C@@H](O)[C@H](O)[C@H]2N)[C@@H](O)[C@H]1O [NB156, (2R, 3S, 4R, 5R, 6S)-5-amino-6-(((1R, 2R, 3S, 4R, 6S)-4,6-diamino-2-(((2S, 3S, 4R, 5R)-5-(aminomethyl)-3,4-dihydroxytetrahydrofuran-2-yl)oxy)-3-hydroxycyclohexyl)oxy)-2-((R)-1,2-dihydroxyethyl)tetrahydro-2H-pyran-3,4-diol]
- MIC (B. subtilis ATCC-6633; [9]): 34 µM
- MIC (E. coli R477-100): > 273 µM
- fold more specific to the eukaryotic ribosome than structurally related compound [5]: 1.85 fold
- prokaryotic ribosome/protein synthesis inhibition and subsequent antibacterial activity compared with structurally related compound [4]: very similar to those of their structurally related Compounds NB74 and NB124
- readthrough activity compared with gentamicin [6]: significantly better than that of the clinical drug gentamicin
- readthrough activity compared with structurally related compound [6]: substantially better than that of the structurally related NB74
- stop-codon mutation readthrough activity compared with NB74 [7]: more active than NB74

Structure (SMILES): C[C@H](N)[C@H]1O[C@@H](O[C@@H]2[C@@H](O)[C@H](N)C[C@H](N)[C@H]2O[C@H]2O[C@H]([C@H](O)CO)[C@@H](O)[C@H](O)[C@H]2N)[C@@H](O)[C@H]1O [NB157, (2R, 3S, 4R, 5R, 6S)-5-amino-6-(((1R, 2R, 3S, 4R, 6S)-4,6-diamino-2-(((2S, 3S, 4R, 5R)-5-((S)-1-aminoethyl)-3,4-dihydroxytetrahydrofuran-2-yl)oxy)-3-hydroxycyclohexyl)oxy)-2-((R)-1,2-dihydroxyethyl)tetrahydro-2H-pyran-3,4-diol]
- MIC (B. subtilis ATCC-6633; [9]): 64 µM
- MIC (E. coli R477-100): > 257 µM
- fold more specific to the eukaryotic ribosome than structurally related compound [5]: 1.25 fold
- prokaryotic ribosome/protein synthesis inhibition and subsequent antibacterial activity compared with structurally related compound [4]: very similar to those of their structurally related Compounds NB74 and NB124
- readthrough activity compared with gentamicin [6]: significantly better than that of the clinical drug gentamicin
- readthrough activity compared with structurally related compound [6]: better than its structurally related NB124

Structure (SMILES): NC[C@H]1O[C@@H](O[C@@H]2C(O)[C@H](N)CC(N)[C@H]2O[C@H]2OC(CO)=CC(O)[C@@H]2N)C(O)[C@H]1O (some centres unmarked) [NB158]
- MIC (B. subtilis ATCC-6633; [8]): 192 µg/mL
- prokaryotic ribosome/protein synthesis inhibition and subsequent antibacterial activity compared with structurally related compound [4]: significantly lower than that of the corresponding paromamine, NB30, and NB118

Structure (SMILES): C[C@H](N)[C@H]1O[C@@H](O[C@@H]2C(O)[C@H](N)CC(N)[C@H]2O[C@H]2OC(CO)=CC(O)[C@@H]2N)C(O)[C@H]1O (some centres unmarked) [NB159]
- MIC (B. subtilis ATCC-6633; [8]): 192 µg/mL
- prokaryotic ribosome/protein synthesis inhibition and subsequent antibacterial activity compared with structurally related compound [4]: significantly lower than that of the corresponding paromamine, NB30, and NB118
